# In patent US6551583B2, “Antibiofouling method and apparatus for optical sensors” (Airak, Inc,, priority 2000, dated 2003):
# Assay: effectiveness of biocides for optrode protection against biofouling
# Details: ppb concentrations
structure (smiles),measurement,value
N#Cc1c(Cl)c(Cl)c(Cl)c(C#N)c1Cl [chlorothalonil],biocide effectiveness (optrode protection),effective even at ppb concentrations
